Columns and labels:
Cytochrome P450 2A6 = molecular target: T1, Cytochrome P450 2A6 (Homo sapiens, UniProt P11509); conditions: bti-tn-5b1-4; note: in other assays of this panel Not Active means under 50% inhibition at 10 µM
T1 sequence (P11509 whole entry): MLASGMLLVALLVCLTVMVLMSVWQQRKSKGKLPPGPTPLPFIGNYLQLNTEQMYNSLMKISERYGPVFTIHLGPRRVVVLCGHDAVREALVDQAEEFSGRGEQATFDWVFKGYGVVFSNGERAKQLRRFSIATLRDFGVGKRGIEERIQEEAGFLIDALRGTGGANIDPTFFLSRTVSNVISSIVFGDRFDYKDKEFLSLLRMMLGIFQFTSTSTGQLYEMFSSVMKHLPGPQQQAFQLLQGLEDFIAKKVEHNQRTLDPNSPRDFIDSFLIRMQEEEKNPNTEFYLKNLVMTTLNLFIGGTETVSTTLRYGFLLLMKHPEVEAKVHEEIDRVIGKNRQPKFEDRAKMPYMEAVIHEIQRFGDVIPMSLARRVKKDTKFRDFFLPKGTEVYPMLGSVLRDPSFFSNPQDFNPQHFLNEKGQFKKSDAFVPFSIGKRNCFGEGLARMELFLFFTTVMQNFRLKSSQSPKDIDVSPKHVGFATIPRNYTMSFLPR

Thromboxane-A synthase = molecular target: T2, Thromboxane-A synthase (Homo sapiens, UniProt P24557); experiment: biochemical; assay type: tissue-based, Platelet;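 note: enzyme inhibition assay with PGH2 supplied as substrate; in other assays of this panel Not Active means under 50% inhibition at 10 µM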
T2 sequence (P24557 whole entry): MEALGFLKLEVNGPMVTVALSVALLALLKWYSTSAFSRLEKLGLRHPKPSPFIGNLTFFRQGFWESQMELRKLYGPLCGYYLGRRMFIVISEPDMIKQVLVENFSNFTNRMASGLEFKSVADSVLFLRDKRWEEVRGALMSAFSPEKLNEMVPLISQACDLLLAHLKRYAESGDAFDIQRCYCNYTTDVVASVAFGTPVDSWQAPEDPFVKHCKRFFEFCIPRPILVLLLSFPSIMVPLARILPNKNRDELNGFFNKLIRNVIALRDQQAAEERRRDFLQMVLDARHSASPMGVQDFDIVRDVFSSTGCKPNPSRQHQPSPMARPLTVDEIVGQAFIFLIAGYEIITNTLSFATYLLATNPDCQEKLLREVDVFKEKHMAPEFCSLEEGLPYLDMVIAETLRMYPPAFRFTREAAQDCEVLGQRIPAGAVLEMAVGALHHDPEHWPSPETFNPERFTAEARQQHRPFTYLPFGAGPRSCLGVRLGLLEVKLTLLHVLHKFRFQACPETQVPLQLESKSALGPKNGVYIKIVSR

[1] = molecular target: Beta-3 adrenergic receptor (Homo sapiens, UniProt P13945); experiment: DRUGMATRIX: Adrenergic beta3 radioligand binding (ligand: [125I] Cyanopindolol); assay type: cell membranes, HEK293, Membrane; conditions: hek293; Not Active = under 50% inhibition at 10 µM
Sequence of Beta-3 adrenergic receptor (P13945 whole entry): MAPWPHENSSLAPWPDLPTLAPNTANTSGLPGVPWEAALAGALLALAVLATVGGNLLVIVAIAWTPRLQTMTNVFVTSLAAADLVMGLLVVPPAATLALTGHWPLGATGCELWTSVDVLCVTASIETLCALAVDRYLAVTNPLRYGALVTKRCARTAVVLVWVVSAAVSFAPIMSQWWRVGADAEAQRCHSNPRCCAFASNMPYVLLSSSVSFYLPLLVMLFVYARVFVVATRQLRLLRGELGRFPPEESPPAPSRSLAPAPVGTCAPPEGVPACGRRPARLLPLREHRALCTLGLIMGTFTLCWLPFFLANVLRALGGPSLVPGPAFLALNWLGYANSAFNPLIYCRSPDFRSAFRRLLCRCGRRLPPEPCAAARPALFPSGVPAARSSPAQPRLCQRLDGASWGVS

Melanocortin receptor 4 = Melanocortin receptor 4 (Homo sapiens, UniProt P32245); assay type: cell membranes, Membrane; conditions: hek293; note: in other assays of this panel Not Active means under 50% inhibition at 10 µM
Sequence of Melanocortin receptor 4 (P32245 whole entry): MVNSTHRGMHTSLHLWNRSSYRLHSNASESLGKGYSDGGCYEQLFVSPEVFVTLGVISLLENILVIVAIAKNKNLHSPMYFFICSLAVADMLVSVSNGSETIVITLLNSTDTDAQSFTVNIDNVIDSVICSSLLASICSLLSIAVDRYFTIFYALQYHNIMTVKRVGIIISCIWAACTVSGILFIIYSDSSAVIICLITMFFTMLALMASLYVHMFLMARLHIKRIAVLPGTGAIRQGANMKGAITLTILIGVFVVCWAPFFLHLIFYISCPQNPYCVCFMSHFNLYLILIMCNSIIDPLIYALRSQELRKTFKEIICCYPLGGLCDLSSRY

[2] = DRUGMATRIX: Glutamate, Kainate radioligand binding (ligand: [3H] Kainic acid); assay type: cell membranes, Rattus norvegicus, Wistar, Brain, Membrane; conditions: Not Active = under 50% inhibition at 10 µM
[3] = DRUGMATRIX: Tumor Necrosis Factor (TNF), Non-Selective radioligand binding (ligand: [125I] TNF-alpha); assay type: cell membranes, Membrane; conditions: u-937; Not Active = under 50% inhibition at 10 µM

## CCN(CC)CC#CCOC(=O)C(O)(c1ccccc1)C1CCCCC1 (centres undefined) [OXYBUTYNIN]
Cytochrome P450 2A6
  IC50: Not Active
  Ki: Not Active
Thromboxane-A synthase; platelet
  IC50: Not Active
[1]
  IC50: Not Active
Melanocortin receptor 4
  IC50: Not Active

## O=P(O)(O)C(O)(Cc1cccnc1)P(=O)(O)O [RISEDRONIC ACID]
Cytochrome P450 2A6
  IC50: Not Active
  Ki: Not Active
Thromboxane-A synthase; platelet
  IC50: Not Active
[1]
  IC50: Not Active
[2]
  IC50: Not Active
  Ki: Not Active
Melanocortin receptor 4
  IC50: Not Active
[3]
  IC50: Not Active
  Ki: Not Active

## CN(CCOc1ccc(CC2SC(=O)NC2=O)cc1)c1ccccn1 (centres undefined) [ROSIGLITAZONE]
Cytochrome P450 2A6
  IC50: Not Active
  Ki: Not Active
Thromboxane-A synthase; read-out: IC50
  IC50: 3.56 µM
[1]
  IC50: Not Active
[2]
  IC50: Not Active
  Ki: Not Active
Melanocortin receptor 4
  IC50: Not Active
[3]
  IC50: Not Active
  Ki: Not Active

## C=C(C)[C@H]1Cc2c(ccc3c2O[C@@H]2COc4cc(OC)c(OC)cc4[C@@H]2C3=O)O1 [ROTENONE]
Cytochrome P450 2A6
  IC50: Not Active
  Ki: Not Active
Thromboxane-A synthase; platelet
  IC50: Not Active
[1]
  IC50: Not Active
[2]
  IC50: Not Active
  Ki: Not Active
Melanocortin receptor 4
  IC50: Not Active
[3]
  IC50: Not Active
  Ki: Not Active

## C#CCN(C)[C@H](C)Cc1ccccc1 [SELEGILINE]
Cytochrome P450 2A6
  IC50: Not Active
  Ki: Not Active
Thromboxane-A synthase; platelet
  IC50: Not Active
[1]
  IC50: Not Active
[2]
  IC50: Not Active
  Ki: Not Active
Melanocortin receptor 4
  IC50: Not Active
[3]
  IC50: Not Active
  Ki: Not Active

## CO[C@H]1C[C@@H]2CC[C@@H](C)[C@@](O)(O2)C(=O)C(=O)N2CCCC[C@H]2C(=O)O[C@H]([C@H](C)C[C@@H]2CC[C@@H](O)[C@H](OC)C2)CC(=O)[C@H](C)/C=C(\C)[C@@H](O)[C@@H](OC)C(=O)[C@H](C)C[C@H](C)/C=C/C=C/C=C/1C [SIROLIMUS]
Cytochrome P450 2A6
  IC50: Not Active
  Ki: Not Active
Thromboxane-A synthase; platelet
  IC50: Not Active
[1]
  IC50: Not Active
[2]
  IC50: Not Active
  Ki: Not Active
Melanocortin receptor 4
  IC50: Not Active
[3]
  IC50: Not Active
  Ki: Not Active

## CN[C@@H]1[C@H](O)[C@H](NC)[C@H]2O[C@@]3(O)C(=O)C[C@@H](C)O[C@H]3O[C@@H]2[C@H]1O [SPECTINOMYCIN]
Cytochrome P450 2A6
  IC50: Not Active
  Ki: Not Active
Thromboxane-A synthase; platelet
  IC50: Not Active
[1]
  IC50: Not Active
[2]
  IC50: Not Active
  Ki: Not Active
Melanocortin receptor 4
  IC50: Not Active
[3]
  IC50: Not Active
  Ki: Not Active

## Nc1ccc(S(=O)(=O)Nc2ncccn2)cc1 [SULFADIAZINE]
Cytochrome P450 2A6
  IC50: Not Active
  Ki: Not Active
Thromboxane-A synthase; platelet
  IC50: Not Active
[1]
  IC50: Not Active
[2]
  IC50: Not Active
  Ki: Not Active
Melanocortin receptor 4
  IC50: Not Active
[3]
  IC50: Not Active
  Ki: Not Active

## COc1ncnc(NS(=O)(=O)c2ccc(N)cc2)c1OC [SULFADOXINE]
Cytochrome P450 2A6
  IC50: Not Active
  Ki: Not Active
Thromboxane-A synthase; platelet
  IC50: Not Active
[1]
  IC50: Not Active
[2]
  IC50: Not Active
  Ki: Not Active
Melanocortin receptor 4
  IC50: Not Active
[3]
  IC50: Not Active
  Ki: Not Active

## Nc1ccc(S(=O)(=O)Nc2nccs2)cc1 [SULFATHIAZOLE]
Cytochrome P450 2A6
  IC50: Not Active
  Ki: Not Active
Thromboxane-A synthase; platelet
  IC50: Not Active
[1]
  IC50: Not Active
[2]
  IC50: Not Active
  Ki: Not Active
Melanocortin receptor 4
  IC50: Not Active
[3]
  IC50: Not Active
  Ki: Not Active

## C[C@]12CC[C@H]3[C@@H](CCC4=CC(=O)CC[C@@]43C)[C@@H]1CC[C@@H]2O [TESTOSTERONE]
Cytochrome P450 2A6
  IC50: Not Active
  Ki: Not Active
Thromboxane-A synthase; platelet
  IC50: Not Active
[1]
  IC50: Not Active
[2]
  IC50: Not Active
  Ki: Not Active
Melanocortin receptor 4
  IC50: Not Active
[3]
  IC50: Not Active
  Ki: Not Active

## CCS(=O)(=O)CCn1c([N+](=O)[O-])cnc1C [TINIDAZOLE]
Thromboxane-A synthase; platelet
  IC50: Not Active
[1]
  IC50: Not Active
[2]
  IC50: Not Active
  Ki: Not Active
Melanocortin receptor 4
  IC50: Not Active
[3]
  IC50: Not Active
  Ki: Not Active

## O=c1n(CCCN2CCN(c3cccc(Cl)c3)CC2)nc2ccccn12 [TRAZODONE]
Cytochrome P450 2A6
  IC50: Not Active
  Ki: Not Active
Thromboxane-A synthase; platelet
  IC50: Not Active
[1]
  IC50: Not Active
Melanocortin receptor 4
  IC50: Not Active

## COc1ccc(CN2CCNCC2)c(OC)c1OC [TRIMETAZIDINE]
Thromboxane-A synthase; platelet
  IC50: Not Active
[1]
  IC50: Not Active
[2]
  IC50: Not Active
  Ki: Not Active
Melanocortin receptor 4
  IC50: Not Active
[3]
  IC50: Not Active
  Ki: Not Active

— ChEMBL document CHEMBL1909046, “DrugMatrix in vitro pharmacology data”
